Measured values taken from US8669232B2, “Flavonol compounds, a bioactive extract/fraction from Ulmus wallichiana and its compounds for prevention for treatment of osteo-health related disorders” (Council of Scientific & Industrial Research, priority 2008, dated 2014).

What was measured:
calvarial osteoblasts = experiment: In vitro mineralization of calvarial osteoblasts (alizarin red-S, von kossa); assay type: cell-based, neonatal Sprague-Dawley rats; details: for Von kossa staining (mineralized nodules) compared with controls (vehicle): 21 days culture
Procedure: Neonatal rat calvarial cell cultures are prepared as described previously (Chattopadhyay et al., Endocrinology 145:3451-62, 2004) using slight modification. Briefly, for calvarial osteoblast cultures, frontal and parietal bones from neonatal Sprague-Dawley rats (1-3 day old) were digested in 0.1% collagenase/0.1% dispase in α-MEM to obtain 5 sequential digests. The second through fifth digests are combined and grown to confluence at 37° C. and 5% CO2 in air in α-MEM, supplemented with 10% fetal bovine serum (FBS), 2 mM glutamine, 100 U/ml penicillin-streptomycin, non-essential amino acid solution and sodium pyruvate.
Ability of cells to produce mineralized matrix is important with regard to development of materials for bone regeneration. Mineralization of extracellular matrix by osteoblasts was determined using alizarin red-S (AR-S) assay combined with cetylpyridinium chloride (CPC) extraction. (Stanford et al, J. Biol. Chem. 270:9420-9428; 1995.) Alizarin red is a dye that binds selectively to nascent calcium salts and is widely used for calcium mineral histochemistry. Cells were seeded onto a six well plate containing 10000 cells/well in culture medium supplemented with 10 mM β-glycerophosphate and 50 μg/ml ascorbic acid with test compounds K012, K058, K068 and K0100 at 1 nM and 100 nM concentration. Treatment was given for 21 days and after completion of the treatment samples were rinsed with PBS followed by fixation (4% HCHO for 20 min). Photomicrographs of the stained wells were taken. Subsequently, alizarin red-S stain was extracted using 10% (w/v) cetylpyridinium chloride (CPC) in […] sodium phosphate, pH 7.0, for 15 min at room temperature, and the resulting solutions were read on a Microplate reader with a test wavelength of 540 nm against a reference wavelength of 620 nm. Mineralization nodules were also seen by Von kossa staining procedure (A. M. Chou et al. Materials Science and Engineering C 20 (2002) 77-83.) After 21 days culture, cells in tissue culture wells were washed with PBS and immersed in 5% (w/v) silver nitrate solution for 45 min. After rinsing with distilled water, they were fixed in 5% (w/v) sodium bicarbonate formalin for 8 min. Finally, they were immersed in 5% (w/v) sodium thiosulphate solution for 5 min and washed thoroughly with water for 15 min and photomicrographs were taken.

[1] = tested on: ovariectomized Sprague Dawley rats; experiment: BMD by DEXA in ovariectomized (Ovx) rats, bone loss model; assay type: in vivo; details: 90 days, compared with Ovx + vehicle; for BMD tibia head: 5 mg/kg body weight oral daily
Procedure: Bone mineral density of femur (global, head, neck), tibia (global, head, tibio-fibular separation point) and lumber vertebra (LV1, LV2, LV3, LV4) was determined by DEXA.
(§1) K058 at 1 to 10 mg/kg body weight were given daily by oral route to Sprague Dawley (180-200 g) rats after bilateral ovariectomy (Ovx). This is the most widely used animal model for osteopenia (bone loss) mimicking human condition of post-menopausal bone loss. The extract was given in gum acacia (vehicle). Sham operated rats and Ovx rats were used as controls and given only gum acacia. Each group consisted of 10 rats and the groups were as follows: sham intact, Ovx, Ovx+1 mg/kg K058 and Ovx+5 mg/kg K058. Treatment started 24 h after the surgery and continued for 90 days. After 90 days, the rats were first acclimatized and then kept in metabolic cages with no food but only water for 24 h to collect urine samples. After 24 h, rats were returned to the cages with food and water ad libitum with oral administration of the extract as before foe an additional 24 hour. Rats were then euthanized and autopsied to collect blood, bones (tibia, femur, L1-L4 vertebrae) and uterus.
as §1, with “K012” for “K058”, “doses of 1- and 5” for “1 to 10”, “(Ovx).” for “(Ovx). This is the most widely used animal model for osteopenia (bone loss) mimicking human condition of post-menopausal bone loss.”, “K012.” for “K058.”, “for” for “foe”

[2] = 5.0 mg/kg body weight oral daily

Row | SMILES | osteoblast mineralization (summary of in vitro effects) (calvarial osteoblasts) | Von kossa staining (mineralized nodules) compared with controls (vehicle) (calvarial osteoblasts) | BMD tibio-fibular separation point (TFSP) ([1]; 1.0 mg/kg body weight oral daily) | BMD tibia head [1] | BMD lumber vertebra global [1, 2] | BMD second lumber vertebra [1, 2] | BMD femur neck ([1]; 5.0 mg/kg oral daily) | BMD tibia global ([1]; 5.0 mg/kg oral daily) | BMD tibio-fibular separation point (TFSP) ([1]; 5.0 mg/kg oral daily) | BMD L4 vertebra ([1]; 1.0&5.0 mg/kg body weight oral daily) | BMD femur global ([1]; 1.0-5.0 mg/kg oral daily) | BMD femur neck ([1]; 1.0-5.0 mg/kg oral daily) | BMD femur shaft ([1]; 1.0-5.0 mg/kg oral daily)
1 | O=c1c(O)c(-c2ccc(O)c(O)c2)oc2cc(O)c(C3O[C@H](CO)[C@@H](O)[C@H](O)[C@H]3O)c(O)c12 (stereo partly shown) [K012, 6-Glucopyranosyl-3,3′,4′,5,7-pentahydroxyflavone] | promoted | increased | increase | significantly higher | higher | higher | significantly higher | significantly higher | significantly higher | – | – | – | –
2 | O=C1c2c(cc(O)c([C@@H]3OC(CO)[C@@H](O)[C@H](O)C3O)c2O)O[C@@H](c2ccc(O)c(O)c2)[C@@H]1O (stereo partly drawn) [K058, (2S,3S)-(+)-3′,4′,5,7-tetrahydroxydihydroflavonol-6-C-β-D-glucopyranoside] | promoted | increased | – | increased | – | – | – | – | – | higher | significantly higher | significantly higher | significantly higher
